Test results reported in patent US9486461B2, “Methods and compositions for inducing apoptosis by stimulating ER stress” (UNIVERSITY OF SOUTHERN CALIFORNIA, priority 2007, dated 2016).

Assays:
U251 glioblastoma cells [1] = assay: Colony forming assay, U251; type: cell-based, human; settings: U251, 30 and 50 μmol/L, 48 hours
Experimental: U251 glioblastoma cells were treated with different drugs, and various parameters of cell growth and cell death were comparatively analyzed. As controls, cells remained either non-treated (Co) or were treated with the solvent DMSO alone. (FIG. 8A) Cells were treated with 30 or 50 μM DMC for 48 hours and the effects on cell growth/survival and on cell death were determined by various assays. […] Below the three panels, the expression levels of the ER stress indicators CHOP, GRP78, and caspase 4 at the end of the 48 hour drug treatment is shown, as determined by Western blot analysis with specific antibodies (actin served as a loading control. (FIG. 8B) Cells were treated with various concentrations of different drugs for 48 hours, as indicated, and cell death was measured with the cell death ELISA kit. (FIG. 8C) Cells were treated with DMC or various coxibs and traditional NSAIDs for 48 hours, as indicated, and cell growth and survival was determined with the conventional MTT assay (control, non-treated cells were set at 100%). […] In parallel, the expression levels of CHOP and GRP78 protein were determined by Western blot analysis.
Twenty-four hours after transfection with small interfering RNA (siRNA), the cells were seeded into six-well plates at 200 cells per well. […] Colonies were visualized by staining for 4 h with 1% methylene blue (in methanol) and then counted.

[2] = system: U87MG glioblastoma cell line; assay: MTT assay, U87MG; type: cell-based; settings: Homo sapiens, U-87 MG, 48 h, read-out: IC50 (50% inhibition of cell growth)
Experimental: (§1) For comparison purposes to the known anti-multiple myeloma effects of bortezomib, the RPMI/8226 multiple myeloma cell line was included in (A).
(§2) 3-(4,5-Dimethylthiazol-2-yl)-2,5-diphenyltetrazolium bromide (MTT) assays were performed in 96-well plates with the use of 3.0×10^3 to 8.0×10^3 cells per well as described in detail elsewhere (19).

[3] = system: CHOP, GRP78, caspase 4 in U251 glioblastoma cells; assay: Western blot of ER stress indicators in U251 cells; type: cell-based, human; settings: U251, 30 and 50 μmol/L, 48 hours
[4] = system: LN229 glioblastoma cell line; assay: MTT assay, LN229; type: cell-based, human; settings: LN229, 48 h
Experimental: as §1, §2

U251 glioblastoma cells [5] = assay: MTT assay, U251; type: cell-based, human; settings: for IC50: Homo sapiens, U-251, U251, 48 h, MTT, read-out: IC50 (50% inhibition of cell growth)
Experimental: U251 glioblastoma cells were treated with different drugs, and various parameters of cell growth and cell death were comparatively analyzed. As controls, cells remained either non-treated (Co) or were treated with the solvent DMSO alone. (FIG. 8A) Cells were treated with 30 or 50 μM DMC for 48 hours and the effects on cell growth/survival and on cell death were determined by various assays. […] Below the three panels, the expression levels of the ER stress indicators CHOP, GRP78, and caspase 4 at the end of the 48 hour drug treatment is shown, as determined by Western blot analysis with specific antibodies (actin served as a loading control. (FIG. 8B) Cells were treated with various concentrations of different drugs for 48 hours, as indicated, and cell death was measured with the cell death ELISA kit. (FIG. 8C) Cells were treated with DMC or various coxibs and traditional NSAIDs for 48 hours, as indicated, and cell growth and survival was determined with the conventional MTT assay (control, non-treated cells were set at 100%). MTT assays were performed in 96-well plates with the use of 3.0-8.0×10^3 cells per well as described in detail elsewhere (34). In parallel, the expression levels of CHOP and GRP78 protein were determined by Western blot analysis. […]
as §2

[6] = system: Tumor-associated Brain Endothelial Cells (TuBEC); assay: Trypan blue exclusion, tumor-associated brain endothelial cells; type: cell-based; settings: TMZ 300 uM and 20 uM DMC, 48 hours, then 12 days without drug
Experimental: After drug treatment the cells were incubated for another 12 days in the absence of drug, in order to determine their long-term survival; at that time cytotoxicity was evaluated using the trypan blue exclusion technique. Results are presented as number of viable cells per group.
Tumor-associated Brain Endothelial Cells (TuBEC) were treated with TMZ (300 uM) and 20 uM DMC for 48 hours. The drugs were removed and cells were incubated for another 12 days; at that time cytotoxicity was evaluated using the trypan blue exclusion technique. Results are presented as number of viable cells per group.

[7] = system: CHOP protein in U87 glioblastoma tumor tissue; settings: shown previously (ref. 39); cited from earlier work
[8] = system: cytoplasmic calcium levels in U251 cells; assay: Cytoplasmic calcium imaging (Fura-2/AM); type: cell-based, human; settings: for elevation of cytoplasmic calcium levels: 100 μmol/L of each drug, Fura-2/AM loaded cells
Experimental: (A) U251 cells were treated with DMC or various coxibs and NSAIDs, and changes in intracellular calcium levels were recorded as described in Materials & Methods. […] Arrows indicate timepoint of drug addition. […] Essentially similar results were also obtained with the LN229 cell line.
The cells were loaded by incubating them with […] Fura-2/AM (Invitrogen) for 30 min at room temperature in external solution containing 138 mmol/L NaCl, 5.6 mmol/L KCl, 1.2 mmol/L MgCl2, 2.6 mmol/L CaCl2, 10 mmol/L HEPES, and 4 mmol/L glucose (pH 7.4). After loading, the cells were rinsed and transferred to the imaging setup. The cells were treated with individual drugs for 10 s, whereas fluorescence was elicited with the excitation wavelength alternating between 350 and 380 nm, using a Polychromator V (TILL Photonics GmbH, Grafelfing, Germany) to provide illumination via a Zeiss Axiovert 100 microscope with a Zeiss Fluar 40 oil objective (Carl Zeiss, Jena, Germany). Images were captured using a Cascade 512B CCD camera (Photometrics, Tucson, Ariz.) controlled with MetaFluor software (Molecular Devices, Sunnyvale, Calif.) at 0.5 Hz acquisition frequency. Ratios of the images obtained at 350 and 380 nm excitation were used to show changes in the cytoplasmic calcium concentration, according to the principles developed by Grynkiewicz et al. (31).

U87 glioblastoma tumors = assay: TUNEL assay of xenograft tumor tissue

| Structure (SMILES) | survival in colony-forming assays (U251 glioblastoma cells [1]) | IC50 [2] [µM] | stimulation of the ESR (CHOP, GRP78, caspase-4 cleavage) [3] | sensitivity of LN229 compared with the other glioblastoma cell lines [4] | IC50 (U251 glioblastoma cells [5]) [µM] | cellular activity in MTT assays (U251 glioblastoma cells [5]; U251, 30 and 50 μmol/L, 48 hours) | susceptibility of tumor vascular endothelial cells to TMZ [6] | dosage at which ER stress in tumor tissue in vivo begins to appear [7] [mg/kg] | elevation of cytoplasmic calcium levels [8] | average maximum calcium peak compared with celecoxib ([8]; 100 μmol/L, difference not statistically significant) | TUNEL staining of tumor tissue (U87 glioblastoma tumors; U87MG xenograft, 1 mg/kg BZM and 7.5 mg/kg DMC individually or in combination, 50 h) | apoptosis in the tumor tissue (U87 glioblastoma tumors; U87 xenograft, short-term drug treatment) | detectable effect on cell growth and survival (MTT) (U251 glioblastoma cells [5]; U251, 48 hours, concentrations of up to 100 μmol/L) |
| --- | --- | --- | --- | --- | --- | --- | --- | --- | --- | --- | --- | --- | --- |
| Cc1ccc(C)c(-c2cc(C(F)(F)F)nn2-c2ccc(S(N)(=O)=O)cc2)c1 [DMC, 4-[5-(2,5-dimethylphenyl)-3-(trifluoromethyl)-1H-pyrazol-1-yl]benzenesulfonamide] | greatly reduced survival | < 40 | potently stimulated the ESR | slightly less sensitive | < 40 | reduced cellular activity | increased the susceptibility | > 10 | pronounced calcium spike | somewhat greater | nor did it substantially increase TUNEL staining | significantly increased apoptosis | – |
| Cc1ccc(-c2cc(C(F)(F)F)nn2-c2ccc(S(N)(=O)=O)cc2)cc1 [celecoxib, 4-[5-(4-methylphenyl)-3-(trifluoromethyl)-1H-pyrazol-1-yl]benzenesulfonamide] | – | ~50 | – | slightly less sensitive | ~50 | – | – | – | pronounced calcium spike | – | – | – | reduced the viability of the cell culture |
